Source: US11111247B2, “Pyrazolopyrimidine compounds and uses thereof” (Incyte Corporation, priority 2018, dated 2021)
Like-named read-outs stand apart in the source and are kept apart here.

Columns and labels:
RT112 cells = test: Luminescent Viability Assay (LVA, FGFR3); assay type: cell-based; settings: Homo sapiens, RT-112, 72 h, 3 days, CellTiter-Glo
Method: RT112 cells were purchased from ATCC (Manassas, Va.) and maintained in RPMI, 10% FBS (Gibco/Life Technologies). To measure the effect of test compounds on the viability of cells, the cells were plated with RPMI 10% FBS (5×10^3 cells/well/in 50 μL) into black 96-well Greiner polystyrene in the presence or absence of 50 μl of a concentration range of test compounds. After 3 days, 100 μl of CellTiter-Glo Reagent (Promega) was added. Luminescence was read with a TopCount (PerkinElmer). IC50 determination was performed by fitting the curve of percent inhibition versus the log of the inhibitor concentration using the GraphPad Prism 5.0 software.

FGFR2 (P) = FGFR2 (P) (Homo sapiens (Human), UniProt P21802); test: FGFR Enzymatic Assay, FGFR2 phosphorylated; settings: phosphorylated enzyme, ATP near or below Km
FGFR3 (UP) = FGFR3 (UP) (Homo sapiens (Human), UniProt P22607); test: FGFR Enzymatic Assay, FGFR3 un-phosphorylated; settings: read-out: FGFR3 (UP) IC50; un-phosphorylated enzyme, ATP near or below Km
Method: (§1) The inhibitor potency of the exemplified compounds was determined in an enzyme discontinuous assay that measures peptide phosphorylation using FRET measurements to detect product formation. Inhibitors were serially diluted in DMSO and a volume of 0.2 μL was transferred to the wells of a 384-well plate. For the isoforms of FGFR (−1, −2, −3 wild-type and mutant isoforms, −4) including phosphorylated (P) and un-phosphorylated (UP) proteins, a 5 μL/well volume of enzyme diluted in assay buffer (50 mM HEPES, 10 mM MgCl2, 1 mM EGTA, 0.01% Tween-20, 5 mM DTT, pH 7.5) was added to the plate and pre-incubated with inhibitor for 5 to 15 minutes at ambient temperature. Appropriate controls (enzyme blank and enzyme with no inhibitor) were included on the plate. The reaction was initiated by the addition of a 5 μL/well volume containing both biotinylated [sequence] […] The plate was allowed to equilibrate for −10 minutes at ambient temperature before scanning on a PheraStar plate reader (BMG Labtech) instrument.
(§2) Either GraphPad prism or XLfit was used to analyze the data. The IC50 values were derived by fitting the data to a four parameter logistic equation producing a sigmoidal dose-response curve with a variable Hill coefficient. Prism equation: Y=Bottom+(Top−Bottom)/(1+10^((LogIC50−X)*Hill slope)); XLfit equation: Y=(A+((B−A)/(1+((X/C)^D)))) where X is the logarithm of inhibitor concentration and Y is the response.

FGFR1 (UP) = FGFR1 (UP) (Homo sapiens (Human), UniProt P11362); test: FGFR Enzymatic Assay, FGFR1 un-phosphorylated
Method: as §1, §2

ALK2 (aa 147-end) = ALK2 (aa 147-end) (Homo sapiens (Human), UniProt Q04771); test: ALK2 HTRF Assay; assay type: biochemical
Method: The enzymatic assays were conducted in white 384-well polystyrene plates in a final volume of 8 μL. The inhibitors were serially diluted in DMSO and added to the plate wells prior to addition of the other reaction components. The assays were carried out at 25° C. in the assay buffer (50 mM HEPES, pH 7.1, 10% Glycerol, 0.01% Brij50, 10 mM MgCl2, 1 mM EGTA, 5 mM DTT, and 0.01% BSA), containing 50 nM LANCE Ultra ULight™-DNA Topoisomerase 2-alpha peptide (Perkin Elmer TRF0130), and 3 uM, 100 uM or 1 mM ATP (as specified). […] The reaction was read on a PHERAstar FS plate reader (BMG Labtech). IC50 determination was performed by fitting percent control activity versus the log of the inhibitor concentration using the IDBS XLFit and GraphPad Prism 5.0 software.

ALK2 = ALK2 (Homo sapiens (Human), UniProt Q04771); test: ALK2 Cellular Assay (phospho SMAD1 HTRF, BMP-7 stimulated HeLa cells); assay type: cell-based; settings: HeLa cells, 200 ng/ml BMP-7, Phospho SMAD1 (S463/S465) HTRF; read-out: ALK2 Cellular Assay PSMAD
Method: HeLa cells were cultured in MEM media with 10% FBS. […] HeLa cells were plated in 96 well flat bottomed plate at 50,000 cells per well and incubated overnight. Next day, media was removed and 50 μL of fresh complete media was added. 5 μL compound was added to cells (3 μM final concentration at highest) and incubated for 60 min at 37° C. 200 ng/ml BMP-7 was added and incubated for 30 min at 37° C. After incubation, the media was removed, washed 2×PBS, and proceeded with HTRF kit according to Cisbio HTRF kit instructions for measuring the Phospho SMAD1 (S463/S465). Finally, both the donor and acceptor were added into 384 well plates and incubated at room temperature overnight and the HTRF signal was measured via Pherastar the next day.

[1] = read-out: FGFR1 (UP) IC50, un-phosphorylated enzyme, ATP near or below Km
[2] = read-out: ALK2 3 μM IC50, 3 uM ATP
[3] = read-out: ALK2 100 μM IC50, 100 uM ATP
[4] = read-out: ALK2 1 mM IC50, 1 mM ATP

Chain of FGFR1 (UP) (P11362 22-822): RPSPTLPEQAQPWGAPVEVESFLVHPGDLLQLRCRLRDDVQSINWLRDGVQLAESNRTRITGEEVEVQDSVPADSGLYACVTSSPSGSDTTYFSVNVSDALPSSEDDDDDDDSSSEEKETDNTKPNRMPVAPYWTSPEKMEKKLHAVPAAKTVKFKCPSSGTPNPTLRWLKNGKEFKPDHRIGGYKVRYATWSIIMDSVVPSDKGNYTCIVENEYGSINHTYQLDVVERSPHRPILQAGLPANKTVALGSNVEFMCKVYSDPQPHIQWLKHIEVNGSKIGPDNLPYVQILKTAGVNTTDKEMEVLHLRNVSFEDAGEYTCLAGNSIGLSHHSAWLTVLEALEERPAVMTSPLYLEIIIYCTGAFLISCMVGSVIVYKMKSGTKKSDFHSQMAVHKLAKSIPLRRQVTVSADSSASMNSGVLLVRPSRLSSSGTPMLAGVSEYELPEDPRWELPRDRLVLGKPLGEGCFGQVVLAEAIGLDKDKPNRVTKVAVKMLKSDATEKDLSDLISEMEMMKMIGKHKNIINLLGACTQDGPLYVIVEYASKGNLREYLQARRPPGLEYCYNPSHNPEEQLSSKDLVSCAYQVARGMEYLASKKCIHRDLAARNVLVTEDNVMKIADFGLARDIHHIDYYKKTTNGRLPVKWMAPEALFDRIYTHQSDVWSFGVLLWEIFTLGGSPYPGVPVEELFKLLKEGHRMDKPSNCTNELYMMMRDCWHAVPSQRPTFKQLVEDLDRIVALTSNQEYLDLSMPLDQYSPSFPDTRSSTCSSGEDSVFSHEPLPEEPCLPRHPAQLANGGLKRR
Chain of FGFR3 (UP) (P22607 23-806): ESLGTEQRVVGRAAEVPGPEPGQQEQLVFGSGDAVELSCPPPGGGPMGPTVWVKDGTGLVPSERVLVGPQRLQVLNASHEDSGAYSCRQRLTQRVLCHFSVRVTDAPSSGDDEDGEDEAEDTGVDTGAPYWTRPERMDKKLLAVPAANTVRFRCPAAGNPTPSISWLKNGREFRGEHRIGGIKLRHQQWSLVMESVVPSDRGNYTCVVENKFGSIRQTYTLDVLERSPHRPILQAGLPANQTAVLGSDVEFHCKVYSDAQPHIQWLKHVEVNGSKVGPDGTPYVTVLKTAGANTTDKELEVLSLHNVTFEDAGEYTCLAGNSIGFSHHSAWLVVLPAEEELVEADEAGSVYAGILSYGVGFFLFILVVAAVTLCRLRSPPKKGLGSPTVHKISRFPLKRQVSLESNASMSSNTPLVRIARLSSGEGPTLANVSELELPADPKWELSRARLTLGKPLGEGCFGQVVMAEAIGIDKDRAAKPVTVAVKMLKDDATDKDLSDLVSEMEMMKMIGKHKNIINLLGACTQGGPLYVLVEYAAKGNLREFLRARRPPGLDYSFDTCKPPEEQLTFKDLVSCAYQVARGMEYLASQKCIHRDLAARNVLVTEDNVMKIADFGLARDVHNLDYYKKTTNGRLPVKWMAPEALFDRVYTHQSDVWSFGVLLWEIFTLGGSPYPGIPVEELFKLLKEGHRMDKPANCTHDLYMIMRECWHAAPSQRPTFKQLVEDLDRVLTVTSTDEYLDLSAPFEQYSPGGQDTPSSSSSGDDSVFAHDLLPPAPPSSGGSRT
Chain of ALK2 (Q04771 21-509): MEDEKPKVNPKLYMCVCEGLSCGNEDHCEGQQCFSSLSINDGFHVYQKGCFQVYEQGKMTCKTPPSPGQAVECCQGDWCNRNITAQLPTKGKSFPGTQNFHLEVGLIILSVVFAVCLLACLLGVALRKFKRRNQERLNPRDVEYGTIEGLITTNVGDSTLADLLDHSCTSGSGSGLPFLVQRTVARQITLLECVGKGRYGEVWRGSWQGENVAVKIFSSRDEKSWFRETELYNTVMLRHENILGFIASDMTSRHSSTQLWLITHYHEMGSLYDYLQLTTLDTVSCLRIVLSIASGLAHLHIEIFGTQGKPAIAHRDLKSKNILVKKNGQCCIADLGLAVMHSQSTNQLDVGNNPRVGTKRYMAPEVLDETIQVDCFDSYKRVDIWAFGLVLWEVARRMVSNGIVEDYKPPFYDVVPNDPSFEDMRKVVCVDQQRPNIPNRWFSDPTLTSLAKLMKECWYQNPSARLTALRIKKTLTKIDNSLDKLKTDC
Chain of FGFR2 (P) (P21802 22-821): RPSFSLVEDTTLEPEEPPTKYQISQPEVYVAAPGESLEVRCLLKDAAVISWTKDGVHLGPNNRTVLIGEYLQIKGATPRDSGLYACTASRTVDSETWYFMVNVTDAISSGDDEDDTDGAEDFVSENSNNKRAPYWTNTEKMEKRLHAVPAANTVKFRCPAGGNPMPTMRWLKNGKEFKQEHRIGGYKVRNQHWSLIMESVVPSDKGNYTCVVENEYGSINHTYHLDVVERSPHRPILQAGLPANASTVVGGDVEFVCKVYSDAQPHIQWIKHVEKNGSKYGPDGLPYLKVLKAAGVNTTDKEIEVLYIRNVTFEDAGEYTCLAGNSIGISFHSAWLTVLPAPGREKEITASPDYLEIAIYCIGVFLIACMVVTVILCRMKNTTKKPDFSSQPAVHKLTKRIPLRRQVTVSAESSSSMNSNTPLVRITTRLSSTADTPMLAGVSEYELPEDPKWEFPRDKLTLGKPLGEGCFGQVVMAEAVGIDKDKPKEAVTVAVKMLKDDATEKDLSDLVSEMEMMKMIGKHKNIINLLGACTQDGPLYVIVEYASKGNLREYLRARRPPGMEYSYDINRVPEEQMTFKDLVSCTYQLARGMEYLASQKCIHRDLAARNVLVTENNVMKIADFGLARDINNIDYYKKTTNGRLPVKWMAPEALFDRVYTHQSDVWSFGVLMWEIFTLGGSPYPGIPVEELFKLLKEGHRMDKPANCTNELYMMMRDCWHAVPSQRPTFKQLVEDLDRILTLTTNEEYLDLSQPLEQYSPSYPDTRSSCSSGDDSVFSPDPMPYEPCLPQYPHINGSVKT
Chain of ALK2 (aa 147-end) (Q04771 147-509): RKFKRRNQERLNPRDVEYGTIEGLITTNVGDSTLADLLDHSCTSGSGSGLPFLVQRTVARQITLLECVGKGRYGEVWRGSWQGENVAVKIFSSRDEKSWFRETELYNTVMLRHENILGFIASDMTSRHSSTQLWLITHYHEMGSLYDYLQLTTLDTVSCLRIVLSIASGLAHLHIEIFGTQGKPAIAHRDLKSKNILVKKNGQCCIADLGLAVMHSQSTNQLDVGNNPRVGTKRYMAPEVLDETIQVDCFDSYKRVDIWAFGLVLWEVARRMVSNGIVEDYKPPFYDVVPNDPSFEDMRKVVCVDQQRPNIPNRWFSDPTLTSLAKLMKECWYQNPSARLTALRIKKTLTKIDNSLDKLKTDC

SMILES	IC50 (RT112 cells)	IC50 (FGFR2 (P); read-out: FGFR2 (P) IC50)	IC50 (FGFR3 (UP))	IC50 (FGFR1 (UP))	IC50 (FGFR1 (UP); [1])	IC50 (ALK2 (aa 147-end); ALK2 3 μM IC50, 3 uM ATP)	IC50 (ALK2 (aa 147-end); ALK2 100 μM IC50, 100 uM ATP)	IC50 (FGFR2 (P); FGFR2 (P) IC50 (nM))	IC50 (ALK2 (aa 147-end); [2])	IC50 (ALK2 (aa 147-end); [3])	IC50 (ALK2 (aa 147-end); [4])	IC50 (ALK2)	IC50 (ALK2 (aa 147-end); ALK2 1 mM IC50, 1 mM ATP)
CC1C(=O)N(CC(F)F)CCN1c1ncc2[nH]nc(-c3cnn(C)c3)c2n1 (stereo not shown) [Example 46, 1-(2,2-Difluoroethyl)-3-methyl-4-(3-(1-methyl-1H-pyrazol-4-yl)-1H-pyrazolo[4,3-d]pyrimidin-5-yl)piperazin-2-one]	100 to 500 nM	< 100 nM	< 100 nM	100 to 500 nM	–	–	–	–	–	–	–	–	–
CN1CC2CCC(C1=O)N2c1ncc2[nH]nc(-c3cnn(-c4ccc(C#N)c(F)c4)c3)c2n1 (stereo not shown) [Example 78, 2-Fluoro-4-(4-(5-(3-methyl-2-oxo-3,8-diazabicyclo[3.2.1]octan-8-yl)-1H-pyrazolo[4,3-d]pyrimidin-3-yl)-1H-pyrazol-1-yl)benzonitrile]	100 to 500 nM	< 100 nM	< 100 nM	100 to 500 nM	–	–	–	–	–	–	–	–	–
CN1CC2CCC(C1=O)N2c1ncc2[nH]nc(-c3cnn(-c4cccnc4)c3)c2n1 (stereo not shown) [Example 69, 3-Methyl-8-(3-(1-(pyridin-3-yl)-1H-pyrazol-4-yl)-1H-pyrazolo[4,3-d]pyrimidin-5-yl)-3,8-diazabicyclo[3.2.1]octan-2-one]	100 to 500 nM	< 100 nM	< 100 nM	–	< 100 nM	–	–	–	–	–	–	–	–
Cn1cc(-c2n[nH]c3cnc(N4CCn5cnc(C(F)(F)F)c5C4)nc23)cn1 [Example 41, 3-(1-Methyl-1H-pyrazol-4-yl)-5-(1-(trifluoromethyl)-5,6-dihydroimidazo[1,5-a]pyrazin-7(8H)-yl)-1H-pyrazolo[4,3-d]pyrimidine]	100 to 500 nM	–	< 100 nM	100 to 500 nM	–	500 to 2000 nM	500 to 2000 nM	100 to 500 nM	–	–	–	–	–
CC(C)N1CCN(c2ncc3[nH]nc(-c4cnn(C)c4)c3n2)C(C)C1=O (stereo not shown) [Example 47, 1-Isopropyl-3-methyl-4-(3-(1-methyl-1H-pyrazol-4-yl)-1H-pyrazolo[4,3-d]pyrimidin-5-yl)piperazin-2-one]	500 to 2000 nM	–	< 100 nM	500 to 2000 nM	–	–	–	100 to 500 nM	–	–	–	–	–
Cn1cc(-c2n[nH]c3cnc(N4CCc5cn[nH]c5C4)nc23)cn1 [Example 44, 3-(1-Methyl-1H-pyrazol-4-yl)-5-(1,4,5,7-tetrahydro-6H-pyrazolo[3,4-c]pyridin-6-yl)-1H-pyrazolo[4,3-d]pyrimidine]	500 to 2000 nM	< 100 nM	< 100 nM	100 to 500 nM	–	500 to 2000 nM	500 to 2000 nM	–	–	–	–	–	–
CN1CC2CCC(C1=O)N2c1ncc2[nH]nc(-c3cnn(Cc4ccncc4)c3)c2n1 (stereo not shown) [Example 59, 3-Methyl-8-(3-(1-(pyridin-4-ylmethyl)-1H-pyrazol-4-yl)-1H-pyrazolo[4,3-d]pyrimidin-5-yl)-3,8-diazabicyclo[3.2.1]octan-2-one]	500 to 2000 nM	< 100 nM	< 100 nM	100 to 500 nM	–	500 to 2000 nM	500 to 2000 nM	–	–	–	–	–	–
Cn1cc(-c2n[nH]c3cnc(N4CCc5ncsc5C4)nc23)cn1 [Example 42, 5-(3-(1-Methyl-1H-pyrazol-4-yl)-1H-pyrazolo[4,3-d]pyrimidin-5-yl)-4,5,6,7-tetrahydrothiazolo[5,4-c]pyridine]	100 to 500 nM	–	< 100 nM	500 to 2000 nM	–	–	–	100 to 500 nM	–	–	–	–	–
CC(C)C(=O)N1CCC(n2cc(-c3n[nH]c4cnc(N5C6CCC5C(=O)N(C)C6)nc34)cn2)CC1 (stereo not shown) [Example 57, 8-(3-(1-(1-Isobutyrylpiperidin-4-yl)-1H-pyrazol-4-yl)-1H-pyrazolo[4,3-d]pyrimidin-5-yl)-3-methyl-3,8-diazabicyclo[3.2.1]octan-2-one]	500 to 2000 nM	< 100 nM	< 100 nM	100 to 500 nM	–	500 to 2000 nM	500 to 2000 nM	–	–	–	–	–	–
CN(C)C(=O)N1CCC(n2cc(-c3n[nH]c4cnc(N5C6CCC5C(=O)N(C)C6)nc34)cn2)CC1 (stereo not shown) [Example 56, N,N-Dimethyl-4-(4-(5-(3-methyl-2-oxo-3,8-diazabicyclo[3.2.1]octan-8-yl)-1H-pyrazolo[4,3-d]pyrimidin-3-yl)-1H-pyrazol-1-yl)piperidine-1-carboxamide]	500 to 2000 nM	< 100 nM	< 100 nM	100 to 500 nM	–	–	–	–	–	–	–	–	–
CN1CC2CCC(C1=O)N2c1ncc2[nH]nc(-c3cnn(-c4ccc(C#N)nc4)c3)c2n1 (stereo not shown) [Example 74, 5-(4-(5-(3-Methyl-2-oxo-3,8-diazabicyclo[3.2.1]octan-8-yl)-1H-pyrazolo[4,3-d]pyrimidin-3-yl)-1H-pyrazol-1-yl)picolinonitrile]	100 to 500 nM	< 100 nM	< 100 nM	–	< 100 nM	–	–	–	–	–	–	–	–
CCC1C(=O)N(C)CCN1c1ncc2[nH]nc(-c3cnn(C)c3)c2n1 (stereo not shown) [Example 39, 3-Ethyl-1-methyl-4-(3-(1-methyl-1H-pyrazol-4-yl)-1H-pyrazolo[4,3-d]pyrimidin-5-yl)piperazin-2-one]	100 to 500 nM	< 100 nM	< 100 nM	100 to 500 nM	–	–	–	–	–	–	–	–	–
C[C@@H]1CN(c2ccc(-c3n[nH]c4cnc(N5[C@@H]6CCC[C@H]5[C@@H](O)C6)nc34)cn2)CCN1 [Example 4, (1R,5S,6S)-8-(3-(6-((R)-3-Methylpiperazin-1-yl)pyridin-3-yl)-1H-pyrazolo[4,3-d]pyrimidin-5-yl)-8-azabicyclo[3.2.1]octan-6-ol]	–	< 100 nM	< 100 nM	100 to 500 nM	–	–	–	–	< 100 nM	< 100 nM	< 100 nM	100 to 500 nM	–
CN1CC2CCC(C1=O)N2c1ncc2[nH]nc(-c3cnn(-c4cncc(C#N)c4)c3)c2n1 (stereo not shown) [Example 73, 5-(4-(5-(3-Methyl-2-oxo-3,8-diazabicyclo[3.2.1]octan-8-yl)-1H-pyrazolo[4,3-d]pyrimidin-3-yl)-1H-pyrazol-1-yl)nicotinonitrile]	500 to 2000 nM	< 100 nM	< 100 nM	100 to 500 nM	–	–	–	–	–	–	–	–	–
Cc1cc(C#N)ccc1-n1cc(-c2n[nH]c3cnc(N4C5CCC4C(=O)N(C)C5)nc23)cn1 (stereo not shown) [Example 77, 3-Methyl-4-(4-(5-(3-methyl-2-oxo-3,8-diazabicyclo[3.2.1]octan-8-yl)-1H-pyrazolo[4,3-d]pyrimidin-3-yl)-1H-pyrazol-1-yl)benzonitrile]	500 to 2000 nM	–	< 100 nM	500 to 2000 nM	–	–	–	100 to 500 nM	–	–	–	–	–
CC(C)C(=O)N1C[C@@H](C)N(c2ncc3[nH]nc(-c4ccc(N5CCN[C@H](C)C5)nc4)c3n2)[C@@H](C)C1 [Example 5, 1-((3R,5S)-3,5-Dimethyl-4-(3-(6-((R)-3-methylpiperazin-1-yl)pyridin-3-yl)-1H-pyrazolo[4,3-d]pyrimidin-5-yl)piperazin-1-yl)-2-methylpropan-1-one]	–	> 2000 nM	> 2000 nM	–	> 2000 nM	–	100 to 500 nM	–	< 100 nM	–	–	500 to 2000 nM	100 to 500 nM
C[C@@H]1CN(c2ccc(-c3n[nH]c4cnc(N5[C@H](C)CCC[C@@H]5C)nc34)cn2)CCN1 [Example 1, 5-((2R,6S)-2,6-Dimethylpiperidin-1-yl)-3-(6-((R)-3-methylpiperazin-1-yl)pyridin-3-yl)-1H-pyrazolo[4,3-d]pyrimidine]	–	< 100 nM	< 100 nM	100 to 500 nM	–	–	–	–	< 100 nM	< 100 nM	< 100 nM	100 to 500 nM	–
